According to publication PMC10674987, “Sweet Cherry Extract as Permeation Enhancer of Tyrosine Kinase Inhibitors: A Promising Prospective for Future Oral Anticancer Therapies” (Pharmaceuticals, 2023):
Read-outs that look alike come from different tables or passages of the source.

Tests used:
[1] = human liver microsomes; previously published; cited from earlier work
[2] = Bidirectional permeability in Caco-2 cells in absence and presence of SCE; assay type: in vitro ADME, human; settings: human, 10 µM compound; for Papp A→B at 2 h, 10 µM: apical to basolateral; for Papp B→A at 2 h, 10 µM: basolateral to apical; for efflux ratio at 2 h, 10 µM: read-out: Efflux ratio (ER) (Papp B-A/Papp A-B)
Procedure: (§1) Caco-2 cells were seeded at a density of 2 × 10^4 on Transwell supports (0.4 µm pore polycarbonate membrane, 6.5 mm) and incubated overnight in a controlled atmosphere of 37 °C and 5% of CO2. The following day, the medium was changed to remove floating cells and fresh pre-warmed DMEM 20% was added (300 µL in the apical compartment and 1200 µL in the basal one). Cells were cultured for approximately 18–21 days in order to ensure that the cellular monolayers differentiated and many transport proteins and brush border hydrolases were expressed. Media were changed every 2–3 days.
(§2) For permeability studies, stock solutions of compounds were prepared by solubilizing 1.0 mg of accurately weighed powder with dimethyl sulfoxide (DMSO) and conserved at −20 °C. Immediately prior to the experiments, working solutions (WS) were prepared by diluting the stock solutions with pre-warmed HBSS to the final concentration of 10 µM. The final concentration of DMSO used never exceeded 0.1% v/v. The assays were performed in both the absorptive (from apical-to-basolateral compartment (A-B)) and the secretory direction (from basolateral-to-apical compartment (B-A)), both in the absence (Free) and presence of sweet cherry extract (+SCE [1 mg/mL]) diluted in HBSS. The final volumes used for the experiment were 300 µL in the apical compartment and 1200 µL in the basolateral one. Plates were incubated at 37 °C and maintained under gentle shaking (500 rpm) to reduce the effect of the unstirred water layer. At selected time points (T0–0.25–0.5–1–2 h-TEND for the A-B studies; T0–2 h–TEND for the B-A studies), samples (200 µL) were collected from the receiving compartments (from the basolateral compartment for the A-B assay; from the apical one for the B-A study) and replaced with the same volume of HBSS. The HPLC-UV/MS method was developed to quantify the amount of drug transferred across the cellular monolayer, and permeability (Papp, 10^−6 cm/s) and efflux ratio (ER) were calculated according to the following equations:Papp = (dQ/dt) × 1/(A × C0)(5) where dQ/dt is the steady-state flux (µmol s^−1), A is the area of the filter (cm^2), and C0 is the initial concentration in the donor compartment (µM). ER = (Papp B-A)/(Papp A-B)(6)
(§3) Chromatographic analyses were carried out using an Agilent 1260 Infinity HPLC-DAD system connected to an Agilent MSD 6130 system (Agilent Technologies, Palo Alto, CA, USA). At room temperature, a Kinetex C18-100 Å column (150 mm 4.6 mm, purchased from Phenomenex, Torrance, CA, USA) with a 5 µm particle size and gradient elution with a binary solution (eluent A: H2O, eluent B: ACN, both acidified with 0.1% v/v formic acid) was for the chromatographic separation. Analyses started with 5% B (from t = 0 to t = 1 min), then increased to 95% (from t = 1 to t = 10 min), then maintained at 95% (from t = 10 to t = 15 min), and finally returned to […] in 1.0 min. The volume injected was 10 µL, and the flow rate 600 µL/min. UV detection was monitored at 254 nm, and spectra were collected in both the positive and negative modes within the scan range of m/z 100–1500.

Caco-2 monolayer = assay: as above; assay type: in vitro ADME, human
Procedure: as §1, §2, §3

[3] = previously published; cited from earlier work
[4] = previously published; cited from earlier work; remark: listed apart in the source

## Oc1ccc(Cl)c(Nc2nc(SCCN3CCOCC3)nc3c2cnn3/C=C/c2ccccc2)c1 [Cpd 7]
[1]
  Metabolic Stability: 97.6%
other
  melting point: 189 to 191 °C
[2]; Caco-2, +SCE [1 mg/mL]
  Papp A→B at 2 h, 10 µM: 11.7 ± 1.2 nm/s
  Papp B→A at 2 h, 10 µM: 4.57 ± 1.08 nm/s
  efflux ratio at 2 h, 10 µM: 0.387 ± 0.052
[2]; Caco-2, Free
  Papp A→B at 2 h, 10 µM: < 5 nm/s
  Papp B→A at 2 h, 10 µM: 2.29 ± 0.23 nm/s
  efflux ratio at 2 h, 10 µM: 0.517 ± 0.014
Caco-2 monolayer; +SCE 1 mg/mL vs Free
  Change of Papp A-B in presence of SCE vs Free: almost doubled
  Change of Papp B-A in presence of SCE vs Free: only a slight increase
  Change of efflux ratio in presence of SCE vs Free: only a slight decrease
Caco-2 monolayer; Free, 10 µM compound
  Efflux ratio (ER) (Papp B-A/Papp A-B): 0.481 ± 0.049
[3]
  PAMPA Papp: 5.5 10^−6 cm/s
  PAMPA membrane retention (MR %): 5.4%
[4]
  Water Solubility: 0.036 µg/mL
